The values that follow come from publication PMC9305425 (Chemmedchem, 2022).

Several values for one entry are separate records, joined by “and”; a condition that tells them apart may be missing. Equal entries are not always repeated. Where two headings read alike, the source gives them in different places.

The target in data set [1] is VcDsbA. To be noted: cited from earlier work.
Data set [2] has as its target T1, oxidized EcDsbA (Escherichia coli, UniProt P0AEG4). The experiment in a line: biochemical. The method, then: ITC was performed using a MicroCal iTC200 instrument (GE Healthcare). […] Titrations were conducted at 25 °C using 15 consecutive injections of 2.5 μL with 180 s intervals and a stirring speed of 700 rpm. […] Every interaction was tested in triplicate and the values given represent mean and standard error of mean (SEM) from these triplicate analyses.
Isothermal Titration Calorimetry (ITC).
EcDsbA (A)/VcDsbA (B). Each experiment was conducted in triplicate; a single replicate
representative of the acquired ITC data is shown.
(1 picture or pasted object on this page, not shown here)

Data set [3] has as its target EcDsbA. To be noted: cited from earlier work.
In data set [4] the test system is VcDsbA. Conditions: cited from earlier work. This is another data set of the same source.
In data set [5] the target is T1, oxidized EcDsbA. Briefly: biochemical. Type of data set: binding. More on the design: made in house; host or cells: E. coli BL21(DE3).
For data set [6] the following is noted: 2D [1H,1H]-NOESY; for solubility / aggregation in aqueous buffer: 298 K.
Procedure: Solubility test of benzimidazole 2 in aqueous buffer. 2D [1H,1H]-NOESY of
benzimidazole 2 at 4 mM in D2O NMR buffer (50 mM NaPi, 25 mM NaCl, pH 6.5; 2% D6-
For data set [7], the target named is T2, oxidized VcDsbA (Vibrio cholerae serotype O1, UniProt P32557).
T2 construct: made in house; host or cells: E. coli BL21(DE3)
T2 sequence (P32557 20-200): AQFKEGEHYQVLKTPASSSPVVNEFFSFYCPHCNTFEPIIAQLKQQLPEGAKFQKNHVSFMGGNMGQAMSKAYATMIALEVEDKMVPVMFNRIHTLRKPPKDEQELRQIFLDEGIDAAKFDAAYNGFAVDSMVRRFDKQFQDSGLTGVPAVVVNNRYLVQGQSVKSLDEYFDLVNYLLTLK
The experiment in a line: biochemical. Type of data set: binding. To be noted: for Kd: 1H-15N HSQC titration, one-site binding model, 100 μM 15N-labeled oxidized VcDsbA, 298 K, read-out: equilibrium dissociation constant (KD); for extent of chemical shift perturbations (CSP) in 1H-15N HSQC of VcDsbA: single-point addition of compound (1 mM) to VcDsbA (100 μM), compared with other hits / analogues.

Data set [8] concerns the target T3, unlabelled oxidized VcDsbA (Vibrio cholerae serotype O1, UniProt P32557).
T3 construct: made in house; host or cells: E. coli BL21(DE3)
The experiment in a line: Ligand-detected 1D 19F NMR affinity estimation. Type of data set: binding. To be noted: change in 19F chemical shift at two protein:ligand ratios, VcDsbA 10 μM. The text has this: Residues with a CSP >0.05 ppm at the highest ligand concentration tested were mapped onto the VcDsbA structure (Figure 2C, D). The residues showing the largest CSP were localized within the hydrophobic groove, adjacent to the active site (Figure 2D). […] The K D for the VcDsbA‐benzimidazole 2 interaction was also estimated using ligand‐detected 1D ^19F‐NMR (Figure 2F). The ^19F chemical shift of the CF3 group in benzimidazole 2 has a chemical shift of −60.38 ppm in the absence of protein and was perturbed upon in a concentration‐dependent fashion upon addition of VcDsbA. The change in the chemical shift of the ^19F signal at two different protein : ligand ratios was used to estimate the K D of the interaction.[20]
Affinity estimation from ligand‐detected ^19F NMR. The change in the resonance frequency of the single ^19F signal in the 1D ^19F NMR spectrum of benzimidazole 2 was used to estimate the binding affinity using equation 2.[43] (2) KD=γL1-L2/1-γ
where γ is described as ΔδF1/ΔδF2 and ΔδF1 and ΔδF2 denote the changes in chemical shift of the fluorine signal of benzimidazole 2 in the absence of VcDsbA and in presence of VcDsbA (10.0 μM) at ligand concentrations of [L]1 and [L]2, respectively.

One may read the Kd as the concentration at which binding is half-saturated.

T1 sequence (P0AEG4 20-208): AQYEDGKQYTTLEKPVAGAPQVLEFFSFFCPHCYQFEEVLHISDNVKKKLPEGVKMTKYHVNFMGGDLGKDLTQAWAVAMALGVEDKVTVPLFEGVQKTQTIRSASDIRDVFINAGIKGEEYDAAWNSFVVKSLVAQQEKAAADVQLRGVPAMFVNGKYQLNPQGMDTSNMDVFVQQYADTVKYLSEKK
T3 sequence (P32557 20-200): as the sequence (P32557 20-200) above

Turning to `C[C@H](CCC(=O)NCCS(=O)(=O)O)[C@H]1CC[C@H]2[C@@H]3[C@H](O)C[C@@H]4C[C@H](O)CC[C@]4(C)[C@H]3C[C@H](O)[C@]12C` [TC, sodium taurocholate], the Kd in data set [1] was 40 ± 2.5 µM; in data set [2] (KD) it was 428 ± 44 µM; in data set [2] (association constant K), 340 µM; in data set [3], 146 ± 7 µM; in data set [5] (KD), 224 µM and ~224 µM. The “N (stoichiometry)” value in data set [2] is on record as 1. The ΔH in data set [2] was -6.551 ± 0.273 kcal/mol. The ΔS in data set [2] is -6.11 cal/mol/deg. In addition, in data set [4], the “VcDsbA substrate oxidation in vivo” value is on record as “inhibit VcDsbA substrate oxidation in vivo”. Moreover, the “redox state of VcDsbA” value in data set [4] was “able to affect the redox state of VcDsbA”. Besides, the “effect on the oxidation state of DsbA” value in data set [5] is recorded as “no effect on the oxidation state”. Moreover, the “solubility / aggregation in aqueous buffer” value in data set [6] ([TC]set = 4 mM in D2O NMR buffer) is given as “no aggregation”.
In the case of `OCCCc1nc2ccc(C(F)(F)F)cc2[nH]1` [benzimidazole 1], in data set [7], the Kd was found to be 610 ± 150 µM and the “extent of chemical shift perturbations (CSP) in 1H-15N HSQC of VcDsbA” value is “largest chemical shift perturbations”.
In the case of `OCCCc1nc2c(Cl)cc(C(F)(F)F)cc2[nH]1` [benzimidazole 2], the results for the Kd in data set [7], in data set [8] and in data set [5] were 446 ± 10 µM, 480 µM and more than 3500 µM, respectively. Further, in data set [7] (ratio of HSQC-derived KD values, VcDsbA over EcDsbA), the “selectivity for VcDsbA over EcDsbA” value is approximately 8 fold. The “extent of chemical shift perturbations (CSP) in 1H-15N HSQC of VcDsbA” value in data set [7] is “largest CSP”. Besides, the “solubility / aggregation in aqueous buffer” value in data set [6] (4 mM in D2O NMR buffer (50 mM NaPi, 25 mM NaCl, pH 6.5; 2% D6-DMSO; 98% D2O)) is listed as “no aggregation”. Also, the “solubility / aggregation in aqueous NMR buffer” value in data set [6] (mixing time 800 ms, concentration of 2.5 mM) was “soluble and free from aggregation”.
